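Each compound was tested at five concentrations against cells in 96-well plates for 48 hours. TGI is the concentration that stops growth completely.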
Columns and labels:
Assay in all cases: DTP human tumour cell line panel, 48 h
[1] = system: 786-0 renal
[2] = system: A498 renal
[3] = system: A549 NSCLC
[4] = system: ACHN renal
[5] = system: CAKI-1 renal
[6] = system: CCRF-CEM leukemia
[7] = system: COLO 205 colon
[8] = system: DLD-1 colon
[9] = system: DMS 114 small cell lung
[10] = system: EKVX NSCLC
[11] = system: HCC-2998 colon
[12] = system: HCT-116 colon
[13] = system: HL-60(TB) leukemia
[14] = system: HOP-18 NSCLC
[15] = system: HOP-62 NSCLC
[16] = system: HOP-92 NSCLC
[17] = system: HT29 colon
[18] = system: IGROV1 ovarian
[19] = system: K-562 leukemia
[20] = system: KM12 colon
[21] = system: KM20L2 colon
[22] = system: LOX IMVI melanoma
[23] = system: LXFL 529 NSCLC
[24] = system: M14 melanoma
[25] = system: M19-MEL melanoma
[26] = system: MALME-3M melanoma
[27] = system: MOLT-4 leukemia
[28] = system: NCI-H226 lung
[29] = system: NCI-H23 lung
[30] = system: NCI-H522 lung
[31] = system: OVCAR-3 ovarian
[32] = system: OVCAR-4 ovarian
[33] = system: OVCAR-5 ovarian
[34] = system: OVCAR-8 ovarian
[35] = system: RPMI-8226 leukemia
[36] = system: SF-268 CNS
[37] = system: SF-295 CNS
[38] = system: SF-539 CNS
[39] = system: SK-MEL-28 melanoma
[40] = system: SK-MEL-5 melanoma
[41] = system: SK-OV-3 ovarian
[42] = system: SN12C renal
[43] = system: SNB-75 CNS
[44] = system: SR leukemia
[45] = system: SW-620 colon
[46] = system: TK-10 renal
[47] = system: U251 CNS
[48] = system: UACC-257 melanoma
[49] = system: UACC-62 melanoma
[50] = system: UO-31 renal
[51] = system: XF 498 CNS

Measured: TGI

COC(=O)C1=CO[C@@H](OC2CC(CO)C(O)C(O)C2O)[C@@H]2[C@@H](C)[C@@H](OC(=O)/C=C/c3ccccc3)[C@@H](O)[C@H]12 (stereo partly specified) (tested in a mixture with another compound)
> 100 µM: all assays above
